Earlier results as cited in patent US12539302B2, “Methods and compositions for the treatment of hair loss” (Aneira Pharma, Inc., priority 2019, dated 2026).
Like-named read-outs stand apart in the source and are kept apart here.

Key:
[1] = test system: hair growth; conditions: McCarey et al. 2004
[2] = test system: dihydrotestosterone (DHT) production; conditions: oral; including prostate gland and scalp
[3] = test system: elevated intraocular pressure; conditions: patients non-responsive to latanoprost, Gandolfi 2003
[4] = test system: elevated intraocular pressure model of glaucoma; conditions: Gagliuso et al. 2004
[5] = propylene glycol, methanol, ethanol and 2-propanol
[6] = target: T1, human FP receptors (Homo sapiens, UniProt P43088); conditions: FP receptor agonist
[7] = target: T1, human FP receptors
[8] = test system: hair growth

T1 sequence (P43088 whole entry): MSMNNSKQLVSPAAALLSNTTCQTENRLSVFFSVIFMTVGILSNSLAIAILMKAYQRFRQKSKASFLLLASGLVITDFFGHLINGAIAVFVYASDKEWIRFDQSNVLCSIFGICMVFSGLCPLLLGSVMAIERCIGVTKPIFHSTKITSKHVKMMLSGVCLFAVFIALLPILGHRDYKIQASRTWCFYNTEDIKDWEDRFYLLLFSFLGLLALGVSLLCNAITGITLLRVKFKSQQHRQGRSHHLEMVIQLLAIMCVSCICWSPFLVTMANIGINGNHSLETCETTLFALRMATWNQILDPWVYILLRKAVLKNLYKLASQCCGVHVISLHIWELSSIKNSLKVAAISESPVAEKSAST

Structure (SMILES): CCCCCCCC(=O)CC[C@@H]1[C@@H](C/C=C\CCCC(=O)O)[C@@H](O)C[C@H]1O [uenoprostone free acid]
- hair growth [1]: cause no hair growth

Structure (SMILES): CC(C)(C)NC(=O)[C@H]1CC[C@H]2[C@@H]3CC[C@H]4NC(=O)C=C[C@]4(C)[C@H]3CC[C@]12C [finasteride, (1S,3aS,3bS,5aR,9aR,9bS,11aS)-N-tert-butyl-9a,11a-dimethyl-7-oxo-1,2,3,3a,3b,4,5,5a,6,9b,10,11-dodecahydroindeno[5,4-f]quinoline-1-carboxamide]
- decrease of DHT production [2]: about 70%

Structure (SMILES): CCNC(=O)CCC/C=C\C[C@@H]1[C@@H](/C=C/[C@@H](O)CCc2ccccc2)[C@H](O)C[C@@H]1O [bimatoprost, Bimatoprost]
- response in reducing elevated intraocular pressure [3]: responsive
- effect on elevated intraocular pressure in combination [4]: additive to that of latanoprost

Structure (SMILES): CC(C)OC(=O)CCC/C=C\C[C@@H]1[C@@H](CC[C@@H](O)CCc2ccccc2)[C@H](O)C[C@@H]1O [latanoprost, Latanoprost]
- solubility, highest concentration that can be used [5]: ≥ 5%
- time stable (acidic or basic aqueous solutions): no more than 48 hours
- time stable (neutral aqueous solutions, room temperature): stable for up to one month

Structure (SMILES): CCCCCCCC(=O)CC[C@@H]1[C@@H](C/C=C\CCCC(=O)OC(C)C)[C@@H](O)C[C@H]1O [Uenoprostone isopropyl ester, Unoprostone isopropyl ester]
- hair growth [1]: cause no hair growth

Structure (SMILES): O=C(O)CCC/C=C\C[C@@H]1[C@@H](CC[C@@H](O)CCc2ccccc2)[C@H](O)C[C@@H]1O [Latanoprost free acid, Latanoprost acid]
- potency relative to PGF2α [6]: twice the potency
- potency as FP receptor ligand relative to latanoprost [7]: two-hundred times more potent

Structure (SMILES): Nc1cc(N2CCCCC2)nc(N)[n+]1OS(=O)(=O)[O-] [minoxidil sulphate]
- potency as hair growth agent compared to minoxidil [8]: much more potent
